This experiment concerns Normal human keratinocytes (NHK). Kind of experiment: Carbonylation test (OxyELISA) after UV/visible irradiation. As to conditions: SBE 200 nM; Tocopherol acetate 20 μM; 2 hours contact; 120 kJ/m^2; P-value <0.01. The format is cell-based. The method, then:
By following the same UV/visible irradiation protocol as the one used above for the comet assay, the rate of carbonylation of keratinocytes in the presence of SBE and tocopherol acetate was measured.
• Normal human keratinocytes (NHK) (T6)-10^6 cells/condition • Conditions: • 1% THF solvent control • SBE 200 nM • Tocopherol acetate 20 μM • Each condition is carried out in triplicate. • Contact with KHNs in different experimental conditions for 2 hours. • UVB/UVA/Visible irradiation at 120 kJ/m^2 of the cells placed in PBS by a Suntest CPS+ solar simulator (Atlas Material Testing Technology) at 4° C. Negative controls are maintained at 4° C. for the same duration as the irradiation. • Trypsination of the cells post irradiation. Rinsing of the iced PBS. Elimination of the PBS and immediate freezing of the cell pellets at −80° C. 2—Measurement of the Carbonylation • The proteins are extracted after lysis of the cells and their concentration is measured using the Bradford test. • The proteins are derived by 2,4-dinitrophenylhydrazine (DNPH), which binds to the carbonyl groups. • The carbonylation rate is then measured on ELISA plates (OxyELISA™ Oxidized Protein Quantitation Kit, Millipore) at 450 nm. Results

For `CC(=O)Oc1c(C)c(C)c2c(c1C)CCC(C)(CCC[C@H](C)CCC[C@H](C)CCCC(C)C)O2` (stereo partly shown) [tocopherol acetate], the “increase of the rate of carbonylation of keratinocyte proteins after UV/visible irradiation” value is “decreases significantly”.

These data come from US10406097B2, “Extract of Arthrobacter agilis for use in particular in cosmetics” (priority 2013, dated 2019).
